Target: T1, porcine trehalase (Sus scrofa, UniProt I3LIR5)
T1 sequence (I3LIR5 24-556): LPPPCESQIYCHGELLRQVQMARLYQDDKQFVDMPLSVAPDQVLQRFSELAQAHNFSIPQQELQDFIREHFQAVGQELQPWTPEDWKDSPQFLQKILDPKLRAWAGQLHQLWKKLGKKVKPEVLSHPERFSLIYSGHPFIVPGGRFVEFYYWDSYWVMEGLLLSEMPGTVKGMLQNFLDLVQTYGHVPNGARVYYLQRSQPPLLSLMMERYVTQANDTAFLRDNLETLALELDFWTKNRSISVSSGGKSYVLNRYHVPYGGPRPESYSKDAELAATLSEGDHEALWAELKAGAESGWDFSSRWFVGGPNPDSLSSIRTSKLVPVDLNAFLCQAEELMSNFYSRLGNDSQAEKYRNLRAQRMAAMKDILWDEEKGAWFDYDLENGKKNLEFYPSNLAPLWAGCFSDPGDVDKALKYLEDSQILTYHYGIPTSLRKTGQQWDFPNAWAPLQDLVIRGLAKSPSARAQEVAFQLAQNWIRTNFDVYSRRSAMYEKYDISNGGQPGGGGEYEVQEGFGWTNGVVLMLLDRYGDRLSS
Test: UV spectrophotometric coupled assay of trehalose hydrolysis
Assay type: biochemical

OC[C@H]1O[C@H](O[C@H]2O[C@H](CO)[C@@H](O)[C@H](O)[C@H]2O)[C@@H](O)[C@@H](O)[C@@H]1O [compound 2, mannotrehalose]
IC50: 1130 µM

Source: PMC6499371 (Chemical communications (Cambridge, England), 2019)
